In ChEMBL document CHEMBL1155732, “Anti-AIDS agents. 46. Anti-HIV activity of harman, an anti-HIV principle from Symplocos setchuensis, and its derivatives” (J Nat Prod, 2001):

Tests used:
H9 = experiment: Cytotoxicity against human H9 cells; assay type: cell-based
[1] = tested on: Human immunodeficiency virus 1; experiment: Antiviral activity against HIV1 in human H9 cells assessed as inhibition of viral replication; assay type: functional, organism-based
[2] = Therapeutic index, ratio of IC50 for human H9 cells to EC50 for HIV1; assay type: cell-based; conditions: for selectivity ratio: H9 cells, read-out: Ratio IC50/EC50; for Ratio IC50/EC50: h9
[3] = Human immunodeficiency virus 1, H9, read-out: EC50

Structure (SMILES)	EC50 ([1]; h9)	IC50 (H9; Homo sapiens, H9) [µM]	EC50 [1, 3] [µM]	selectivity ratio [2]	IC50 (H9; h9) [µM]	EC50 ([1]; h9, read-out: EC50) [µM]	Ratio IC50/EC50 [2]
CCn1c2cc(OC)ccc2c2ccnc(C)c21	–	8.5	0.35	24.2	–	–	–
Br.COc1cc2[nH]c3c(C)nccc3c2cc1Br	–	–	–	–	5.9	0.22	26.8
COc1ccc2c(c1)[nH]c1c(C)[n+](C)ccc12.[I-]	–	49.6	8.6	–	–	–	5.8
CCC[n+]1ccc2c([nH]c3cc(OC)ccc32)c1C.[I-]	–	55.4	9.6	–	–	–	5.8
COc1cc2[nH]c3c(C)nccc3c2cc1Br	–	–	–	–	74	13.2	5.6
Cc1nccc2c1[nH]c1cc(OC(C)C)ccc12	Not Active	86.7	–	–	–	–	–
CCCCCCOc1ccc2c(c1)[nH]c1c(C)nccc12	Not Active	8.2	–	–	–	–	–
CCOc1ccc2c(c1)[nH]c1c(C)nccc12	–	25.9	6.5	–	–	–	4
CC1=NCCc2c1[nH]c1ccccc21	–	110	32	–	–	–	3.4
CC(=O)Oc1ccc2c(c1)[nH]c1c(C)nccc12	–	107	17.3	–	–	–	6.2
COc1ccc2c3c([nH]c2c1)C(C)N(N=O)CC3 (stereo not given)	–	56.5	7.1	8	–	–	–
CCCCn1c2cc(OC)ccc2c2ccnc(C)c21	–	7.8	0.037	210	–	–	–
COc1ccc2c3ccn(C)c(C)c-3nc2c1	–	70.9	–	–	–	–	15.8
COS(=O)(=O)O.Cc1nccc2c1[nH]c1ccccc12	–	–	–	–	77.5	10.3	7.5
COc1ccc2c3ccnc(C)c3n(C)c2c1	–	10.1	1.1	9.2	–	–	–
CCCn1c2cc(OC)ccc2c2cc[n+](C)c(C)c21.[Br-]	–	53.2	23.8	–	–	–	2.2
Br.CC1=NCCc2c1[nH]c1cc(O)ccc21	Not Active	97.1	–	–	–	–	–
CCCCCCCCC1NC(C(=O)O)Cc2c1[nH]c1ccccc21 (stereo not given)	Not Active	60.4	–	–	–	–	–
COc1cc(C[C@H]2COC(=O)[C@@H]2Cc2ccc(OC(C)=O)c(OC)c2)ccc1OC(C)=O	–	49.3	6.9	7.1	–	–	–
CC1=NCCc2c1[nH]c1cc(O)ccc21.Cl [HARMALOL HYDROCHLORIDE]	Not Active	–	–	–	87.1	–	–
Cc1nccc2c1[nH]c1ccccc12 [HARMAN]	–	112	10.7	10.4	–	–	–
COc1ccc2c(c1)[nH]c1c(C)nccc12 [HARMINE]	–	26.4	0.52	–	–	–	50.8
Cc1[nH]ccc2c1[nH]c1cc(=O)ccc12 [HARMOL]	–	108	11.1	–	–	–	9.7
COc1cc(C[C@H]2COC(=O)[C@@H]2Cc2ccc(O)c(OC)c2)ccc1O [MATAIRESINOL]	–	21.9	2	11	–	–	–
c1ccc2c(c1)[nH]c1cnccc12 [NORHARMANE]	–	142	44.1	–	–	–	3.2

Second part, led by results:

EC50 ([1]; h9)	Structure (SMILES)	IC50 (H9; Homo sapiens, H9) [µM]	EC50 [1, 3] [µM]	selectivity ratio [2]	IC50 (H9; h9) [µM]	EC50 ([1]; h9, read-out: EC50) [µM]	Ratio IC50/EC50 [2]
Not Active	COc1ccc2c(c1)[nH]c1c(/C=C/c3ccc([N+](=O)[O-])cc3)nccc12	15.4	–	–	–	–	–
Not Active	CCCCCCCCCCCCCCCCOc1ccc2c(c1)[nH]c1c(C)nccc12	42.7	–	–	–	–	–
Not Active	Cc1cc(O)n2c(n1)nc1ccccc12	118	–	–	–	–	–
Not Active	CCCCCCCCCCOc1ccc2c(c1)[nH]c1c(C)nccc12	5.9	–	–	–	–	–
Not Active	Cc1nccc2c1[nH]c1cc(OC(=O)C34CCC(C)(C(=O)O3)C4(C)C)ccc12 (stereo not given)	58.9	–	–	–	–	–
Not Active	COc1cc([C@@H]2OC[C@@H]3[C@H]2CO[C@H]3c2ccc(O)c(OC)c2)ccc1O [(+)-PINORESINOL]	67	–	–	–	–	–
Not Active	COc1cc([C@H]2c3cc(O)c(OC)cc3C[C@@H](CO)[C@@H]2CO)ccc1O [ISOLARICIRESINOL]	> 277	–	–	–	–	–
Not Active	COc1cc(C[C@H]2COC(=O)[C@@H]2Cc2ccc(O[C@@H]3O[C@H](CO)[C@@H](O)[C@H](O)[C@H]3O)c(OC)c2)ccc1O [MATAIRESINOSIDE]	> 192	–	–	–	–	–
